# Assay results from patent US8785416B2, “Sulphated disaccharides for the treatment of neurodegenerative and/or neurovascular diseases” (Bioiberica, S.A., priority 2009, dated 2014).
# How the values were obtained:
# [1] = system: SH-SY5Y human neuroblastoma cells; experiment: Neuroprotection against cell death induced by rotenone plus oligomycin-A (oxidative stress), LDH release; assay type: cell-based
# Method: An oxidative stress model consists of blocking mitochondrial respiratory chain complexes I and V by means of the combination of rotenone plus oligomycin-A, respectively. As a result of the interruption of the mitochondrial respiratory chain, the cell is unable to continue producing ATP, and the free radicals are generated exceeding the capacity of the cell to neutralize them, and as a result, cell death occurs.
# SH-SY5Y human neuroblastoma cells were cultured in a monolayer in 75 cm^2 flasks with a vented stopper. The culture medium used was Dulbecco's Modified Eagle's Medium (DMEM) with a high glucose content ([…]) and supplemented with 10% foetal bovine serum, 2 mM L-Glutamine, 50 IU/mL penicillin and 50 μg/mL streptomycin.
# The cell cultures were maintained in an incubator at 37° C. in a humid environment, with 5% CO2 and 95% air. The culture medium was changed twice a week, performing 1:4 passages when the cells reached 70-80% confluence. To perform the passages, the cells were detached by means of their treatment with trypsin-EDTA.
# For the cell viability assays, the cells were seeded in sterile 48-well plates at a density of 80,000 cells/well. The experiments were performed 24-48 hours after their seeding.
# To evaluate the neuroprotective effect of the compounds, the SH-SY5Y cells were preincubated for 24 hours with the compound under study, and subsequently incubated for 24 hours with the compound under study in the presence of the toxic substances (a combination of 10 μM rotenone and 1 μM oligomycin-A); at the end of this period the cell viability was evaluated by quantifying the release of the LDH enzyme.
# The assessment of this enzyme was performed by means of a commercial kit (Cytotoxicity detection kit-LDH; Roche) following the instructions of the company. The samples were colorimetrically analyzed in a plate reader (Labsystems iEMS Reader MF), using the suitable filter at 490-600 nm and obtaining the absorbance values.
# The % of cell death was defined as the % of LDH released into the extracellular medium with respect to the total (sum of intra- and extracellular LDH).
# Compounds Ic and Ib were studied at four concentrations (0.001, 0.003, 0.01 and 0.03 μM), chondroitin sulphate (supplied by Bioibérica, S.A.) was assayed at two concentrations (10 and 60 μM) and trolox (Sigma Aldrich) was assayed at two concentrations (30 and 300 μM). The experiment also included the baseline (SH-SY5Y cells in the absence of compound and of toxic stimulus) and the control (SH-SY5Y cells cultured in the absence of compound and in the presence of the toxic stimulus rotenone plus oligomycin).
# [2] = system: rat hippocampal slices; experiment: Oxygen and glucose deprivation (15 minutes OGD, 2 hours reoxygenation) in hippocampal slices, MTT cell viability; assay type: cell-based
# Method: Male Spague Dawley strain rats (250-325 g) were used. After anaesthesia by means of an intraperitoneal injection of 60 mg/Kg sodium pentobarbital (Euta-Lender®), they were decapitated with a guillotine and the brain was extracted after a craniotomy. The brain was immediately submersed in a dissection solution, a cold (4° C.) modified Krebs-Henseleit solution at pH 7.4, the composition of which is: 120 mM NaCl, 2 mM KCl, 0.5 mM CaCl2, 26 mM NaHCO3, 10 mM MgSO4, 1.18 mM KH2PO4, 11 mM glucose and 200 mM sucrose, bubbled with 95% O2-5% CO2. The hippocampi were isolated, embedded in 2% low melting point agarose (Sigma-Aldrich), and cut into 350 μm transverse slices in a vibratome (Leica VT1000S).
# After the cutting in the vibratome, the slices were transferred to a vial with sucrose-free dissection Krebs solution, bubbled with 95% O2-5% CO2 for 60 minutes (equilibrium period).
# After the equilibrating period, the medium was removed and an oxygenated solution (normal Krebs solution (120 mM NaCl, 2 mM KCl, 2 mM CaCl2, 26 mM NaHCO3, 1.19 mM MgSO4, 1.18 mM KH2PO4 and 11 mM glucose), bubbled with 5% CO2 and 95% O2 for 30 minutes (preincubation period), was introduced. The baseline slices were maintained in this oxygenated solution throughout the entire experiment. To induce OGD, the oxygenated solution was replaced with another one which lacked glucose and was bubbled with a mixture of gases of 5% CO2 and 95% N2 (anoxic solution). The slices were in a bath at 37° C. After inducing OGD, the anoxic medium was replaced with another one which contained the oxygenated solution (reoxygenation period).
# To evaluate the effect of the compounds, they were incubated for the 30 minutes of the preincubation and throughout the OGD and during the reoxygenation. Two OGD-reoxygenation protocols were used: (i) 1 hour of OGD and 2 hours of reoxygenation and (ii) 15 minutes of OGD followed by 2 hours of reoxygenation.
# When the OGD-reoxygenation protocol (ii): 15 minutes of OGD followed by 2 hours of reoxygenation was used, the slices were incubated with increasing concentrations of compound Ic (0.3 and 1 μM) or with increasing concentrations of compound Ib (1 and 3 μM). In the same study these two compounds of the invention were compared with N-acetylcysteine (NAC) at 10 mM. The baseline (slices in the absence of compound Ic or Ib and of OGD) and the control (slices in the absence of compound Ic or Ib and with OGD) were also included.
# For the protocol of 15 minutes of OGD followed by 2 hours of reoxygenation, the cell viability was evaluated by means of the tetrazolium salt MTT, which is internalized in those cells which are viable and are therefore capable of reducing the tetrazolium to formazan which is an insoluble and coloured product which is deposited in the […]. To that end, after the experiment had ended, the hippocampal slices were incubated with MTT at a final concentration of 0.5 mg/mL in a Krebs-HEPES solution (in mM: NaCl, 144; KCl, 5.9; MgCl2, 1.2; CaCl2, 2; HEPES, 10; glucose, 11; at pH 7.3) at 37° C. After 3 hours, the medium was removed and the formazan precipitated in the solution was dissolved in dimethylsulfoxide. Then, the absorbance was measured in a plate reader (Labsystems iEMS Reader MF), at 500 nm. The data were represented taking the result of the baseline slices, i.e., those not subjected to OGD, as 100% viability.
# [3] = system: SH-SY5Y human neuroblastoma cell line; experiment: Cell toxicity study, LDH release, SH-SY5Y cells incubated 48 hours; assay type: cell-based; details: 100 μM, 48 hours incubation
# Method: The cell toxicity studies were performed on the SH-SY5Y human neuroblastoma cell line, incubating said cells for 48 hours with the compound under study. The cell viability was assessed by quantifying the release of lactate dehydrogenase (LDH), which is a cytoplasmic enzyme which is released into the extracellular medium when the integrity of the cytoplasmic membrane is lost.
# [4] = system: mice (photothrombotic stroke model); experiment: Experimental photothrombotic stroke model, cortical infarction volume; assay type: in vivo, mouse; details: 15 mg/kg i.p.
# Text: Neuronal death occurs during brain ischemia or stroke; therefore a medicament with a neuroprotective profile can have a therapeutic potential in patients who have suffered from a cerebral infarction or stroke. To explore if the compounds of formula (I) can offer neuroprotection in vivo, the experimental photothrombotic stroke model was used. In the photothrombosis model a focal cerebral infarction is induced in the area of the cortex illuminated by means of a cold light source in mice previously treated with the Rose Bengal stain; this stain is photosensitive and produces free radicals when it is stimulated with light, causing lesions in the surrounding vascular endothelium, which causes platelet aggregation and the formation of thrombi in the microvessels of the cerebral cortex (Non-invasive induction of focal cerebral ischemia in mice by photothrombosis of cortical microvessels: characterization of inflammatory responses, M. Schroeter et al., J Neurosci Methods. 117(1), 43-49. (2002); Melatonin reduces infarction volume in a photothrombotic stroke model in the wild-type but not cyclooxygenase-1-gene knockout mice, L Y. Zhou et al., J Pineal Res. 41(2), 150-156. (2006)).
# Adult male Swiss breed mice from Harlan laboratories (Barcelona), with a weight of about 30 g, were used. Once anaesthetised with isoflurane, the mice were placed in a stereotaxic frame, maintaining their rectal temperature at 37±0.5° C. during the entire procedure. Subsequently, the cranium was exposed by means of a dorsomedial incision in the skin and the periosteum was removed. By means of the use of a micromanipulator, a fibre-optic cable was placed to emit a beam of light of 1.9 mm in diameter and 3000° K, connected to a cold light source (Zeiss KL 1500), in 2.0 mm posterior and 3.0 mm lateral to Bregma on the right side. According to the mouse brain atlas (Franklin and Paxinos, 1986), the sensitive-motor cortex, the putamen caudate and the hippocampus are right below this stereotaxic position. Then, the mice were injected with 1 mg of the Rose Bengal photosensitive probe and the brain was illuminated through the intact cranium for 30 minutes. Finally, the skin was sutured and the animals were left in a cage until their recovery under observation.
# The animals were sacrificed by decapitation 72 hours after the ischemia. […]
# To quantify the cortical cerebral infarction volume, the sections stained with TTC were scanned on both their rostral and caudal part and by means of the image analysis programme ImageJ 1.41 (National Institutes of Health, Bethesda, Md., USA) the area of the ipsi-, contralateral cortex and the cerebral infarction of each of the sections scanned, both in the caudal and rostral part, was quantified. Subsequently, the cerebral infarction volume was calculated. […]
smiles,measurement,setting,value
"Cc1c(C)c2c(c(C)c1O)CCC(C)(C(=O)O)O2 (stereo not drawn) [trolox, reference compound]",effect on cell death induced by rotenone and oligomycin,[1]; 30 and 300 μM,reduced cell death
"CC(=O)N[C@@H](CS)C(=O)O [N-acetylcysteine, reference compound]",viability at 10000 µM,"[2]; Rattus norvegicus, 10 mM, 15 minutes OGD, 2 hours reoxygenation, baseline 100%, control 67%, read-out: maximum statistically significant protection (cell viability, MTT)",83%
CO[C@H]1OC(COS(=O)(=O)[O-])[C@@H](O)[C@H](O[C@@H]2OC(C(=O)[O-])[C@@H](O)[C@H](O)C2O)C1NC(C)=O.[Na+].[Na+] (stereo partly drawn) [compound Ib],cell toxicity (release of LDH),[3],did not show toxicity
same,efficacy in comparison with N-acetylcysteine,"[2]; Ic 0.3 and 1 μM, Ib 1 and 3 μM vs N-acetylcysteine 10 mM",higher efficacy
same,viability at 3 µM,"[2]; Rattus norvegicus, 3 μM, 15 minutes OGD, 2 hours reoxygenation, baseline 100%, control 67%, read-out: maximum statistically significant protection (cell viability, MTT)",85%
same,maximum statistically significant protection against cell death (% of released LDH) induced by rotenone and oligomycin,"[1]; 0.03 μM, 24 h preincubation + 24 h with 10 μM rotenone and 1 μM oligomycin-A",40%
same,protective effect compared with chondroitin sulphate and trolox,"[1]; Ic, Ib at 0.001-0.03 μM vs chondroitin sulphate 10 and 60 μM, trolox 30 and 300 μM",more effective than chondroitin sulphate and than trolox
"COc1ccc2[nH]cc(CCNC(C)=O)c2c1 [melatonin, reference compound]",cortical infarction volume,"[4]; 72 hours after ischemia, saline 6.1±2.18%, mean and standard deviation",4.3±1.63%
same,protection (reduction of cortical infarction volume),[4]; p<0.05 vs saline,29%
